In patent publication US9779901B2, “High temperature material compositions for high temperature thermal cutoff devices” (Therm-O-Disc, Incorporated, priority 2008, dated 2017):
Like-named read-outs stand apart in the source and are kept apart here.

Assays:
[1] = estimated melting point temperature ranges of candidate organic compounds (Table 2); some compounds have several values, partly in parentheses, because analytic techniques differ; cited from earlier work

Row | Melting Point | SMILES | Melting Point [1]
1 | 260 to 265 °C | Cn1ccc(N)nc1=O [Example 145] | 260-265° ° C.
2 | 244 to 245 °C | Nc1ccc(C(=O)c2ccc(N)cc2)cc1 [Example 33] | 244-245° ° C.
3 | 263 °C | Cc1cc(=O)oc2cccc(O)c12 [Example 169] | 263° ° C.
4 | 265 °C | Nc1ccc2cc([N+](=O)[O-])ccc2n1 [Example 201] | 265° ° C.
5 | 249 to 250 °C | Nc1cccc2sc3ccccc3c(=O)c12 [Example 75] | 249-250° ° C.
6 | 243 °C | CC1=C(/C=C/C(C)=C/C=C/C(C)=C/C=C/C=C(C)/C=C/C=C(C)/C=C/C2=C(C)C(=O)C(=O)C2(C)C)C(C)(C)C(=O)C1=O [Example 26] | 243° ° C.
7 | 260 to 261 °C | O=c1cc2oc3ccccc3oc-2cc1=O [Example 138] | 260-261° ° C.
8 | 265 to 266 °C | N#Cc1ccc(Nc2ccc(C#N)cc2)cc1 [Example 194] | 265-266° ° C.
9 | 244 °C | COc1ccccc1[C@H](C)C(=O)N1C[C@@H]2[C@H](C1)C(c1ccccc1)(c1ccccc1)CC[C@@]2(O)c1ccccc1OC [Example 34] | 244° ° C.
10 | 250 °C | CN1Cc2cc(C3=NNC(=O)CC3)ccc2NC1=O [Example 79] | 250° ° C.
11 | 255 to 256 °C | Oc1ccc(-c2cnc(-c3cccnc3)o2)cc1 [Example 115] | 255-256° ° C.
12 | 244 to 245 °C | O=Cc1c2ccccc2c(C=O)c2ccccc12 [Example 37] | 244-245° ° C.
13 | 241 to 244 °C | CCOc1cccc(C#N)c1 [Example 5] | 241-244° ° C.
14 | 249 °C | c1ccc2nc3nccnc3nc2c1 [Example 71] | 249° ° C.
15 | 245 to 247 °C | Nc1nnc2ccccn12 [Example 48] | 245-247° ° C.
16 | 261 to 262 °C | O=C1c2ccccc2-c2oc(=O)c3ccccc3c21 [Example 156] | 261-262° ° C.
17 | 265 °C | Cc1nc2c(C)c(C)c(C)c(C)c2[nH]1 [Example 209] | 265° ° C.
18 | 263 to 264 °C | NC(=O)c1c2ccccc2nc2ccccc12 [Example 178] | 263-264° ° C.
19 | 243 °C | Cc1cc(C)c(C=O)cc1C [Example 28] | 243° ° C.
20 | 245 to 246 °C | Cn1cnc2ncn(C)c2c1=O [Example 41] | 245-246° ° C.
21 | 258 °C | O=[N+]([O-])c1nc2ccccc2[nH]1 [Example 127] | 258° ° C.

Row | Melting Point | SMILES | Melting Point [1]
22 | 241 °C | c1cc2c3c(cccc3c1)-c1nc3ccccc3nc1-2 [Example 10] | 241° ° C.
23 | 245 to 246 °C | CC1(C)Oc2ccc(C#N)cc2[C@H](n2ccccc2=O)[C@H]1O [Example 45] | 245-246° ° C.
24 | 247 to 249 °C | CCNC(=O)c1cc2c(cn1)[nH]c1ccccc12 [Example 61] | 247-249° ° C.
25 | 242 °C | O=[N+]([O-])c1cccc2nc[nH]c12 [Example 12] | 242° ° C.
26 | 246 to 248 °C | Cc1c(C)c(CO)c(C)c(C)c1CO [Example 51] | 246-248° ° C.
27 | 258 to 259 °C | NC1=NCCC(CC(N)C(=O)O)N1 (centres unmarked) [Example 124] | 258-259° ° C.
28 | 254 to 255 °C | c1ccc2c(c1)[nH]c1ccc3cnccc3c12 [Example 99] | 254-255° ° C.
29 | 249 °C | O=[N+]([O-])c1ccc(NN=Cc2ccccc2Cl)cc1 [Example 73] | 249° ° C.
30 | 251 to 253 °C | Cc1cc2[nH]c3ccccc3c2cc1C [Example 87] | 251-253° ° C.
31 | 265 °C | Nc1cc(N)n(N)c(=S)n1 [Example 197] | 265° ° C.
32 | 265 °C | Nc1cccc2c1C(=O)c1c(N)cccc1C2=O [Example 198] | 265° ° C.
33 | 249 to 250 °C | NNc1ccc(C(N)=O)nn1 [Example 72] | 249-250° ° C.
34 | 262 °C | O=c1c2ccccc2[nH]c2c([N+](=O)[O-])cccc12 [Example 164] | 262° ° C.
35 | 264 °C | O=[N+]([O-])c1ccc(NN=Cc2ccccn2)cc1 [Example 181] | 264° ° C.
36 | 262 to 263 °C | COc1ncnc2nc[nH]c12 [Example 161] | 262-263° ° C.
37 | 244 to 245 °C | Nc1ccn(C2C=CC(N)C(C(=O)O)O2)c(=O)n1 (centres unmarked) [Example 35] | 244-245° ° C.
38 | 261 °C | O=c1c2ccccc2oc2nc3ccccc3nc12 [Example 155] | 261° ° C.
39 | 250 to 253 °C | CN(C)c1ccc(C(C)(C)C)cc1 [Example 82] | 250-253° ° C.
40 | 242 °C | c1cnc2c(ccc3nccnc32)n1 [Example 20] | 242° ° C.
41 | 242 to 244 °C | NC(=O)CCCC[C@@H]1SC[C@@H]2NC(=O)N[C@@H]21 [Example 13] | 242-244° ° C.
42 | 258 to 260 °C | CC(=O)Nc1cnn2c(C)nc3ccccc3c12 [Example 125] | 258-260° ° C.

Row | SMILES | Melting Point | Melting Point [1]
43 | O=c1ccc2c(cc3ccc4cccc5ccc2c3c45)c1=O [Example 139] | 260 °C | 260° ° C.
44 | CC(=O)Nc1cc2ccccc2c2ccc3ccccc3c12 [Example 83] | 250 to 251 °C | 250-251° ° C.
45 | O=[N+]([O-])c1c2ccccc2c([N+](=O)[O-])c2ccccc12 [Example 171] | 263 °C | 263° ° C.
46 | C#C/C=C/C1C(O)CCCC12CCCC(CCCC#C)N2 (centres unmarked) [Example 60] | 247 to 250 °C | 247-250° ° C.
47 | Oc1cc2cc3c(ccc4ccccc43)cc2c2ccccc12 [Example 173] | 263 to 264 °C | 263-264° ° C.
48 | O=C1C=Cc2c(ccc3c2ccc2ccccc23)C1=O [Example 142] | 260 to 261 °C | 260-261° ° C.
49 | O=C1CC(=O)N(c2ccccc2)C(=O)N1 [Example 160] | 262 °C | 262° ° C.
50 | COc1c(O)cc2c(c1OC)-c1ccc(OC)c(=O)cc1C(NC=O)CC2 (centres unmarked) [Example 175] | 263 to 267 °C | 263-267° ° C.
51 | Oc1cc2c3ccccc3ccc2c2ccccc12 [Example 68] | 248 to 250 °C | 248-250° ° C.
52 | Oc1c2ccc3ccccc3c2cc2ccc3ccccc3c12 [Example 101] | 254 to 256 °C | 254-256° ° C.
